According to patent US6294649A, “Method of cell inhibition using polypeptides derived from the venom of the Austrialian jumper ant Myrmecia pilosula” (Northern Sydney Area Health Service, priority 1996, dated 2001):
Like-named read-outs stand apart in the source and are kept apart here. No end group written: not given here.

What was measured:
[1] = test system: cells; test: Cytotoxicity to cells (cell proliferation and flow cytometry); type: cell-based; details: cells tested
Protocol: (§1) Cell proliferation and flow cytometry have been used to determine the cytotoxic effects on cells. Cell proliferation involves growing cells to log-phase growth and adding Pilosulin 1 at different final peptide concentrations and ^3 H-methyl thymidine at the same time. The cells are incubated at 37° C. for 16 hours, harvested, lysed and washed and the cells liquid scintillation counted. Flow cytometry employs the exclusion of propidium iodide from cells as an index of their viability. In experiments where fluorescent labelled monoclonal antibodies recognising cell specific markers were used, exclusion of 7-actinomycin D was used as the index of cell viability. In these latter experiments cells were incubated with the fluorescent antibodies and then washed to remove unbound antibodies. The treated cells were stored on ice and Pilosulin 1 added 5 minutes prior to flow cytometric measurement.

[2] = test system: Epstein Barr-transformed human B-cells; test: Cell proliferation (3H-methyl-thymidine); type: cell-based
Protocol: as §1
Epstein Barr-transformed human B-cells grown to log phase. One hundred […] of cells (10^5 cells) were placed in the wells of microtitre plates. Venom and venom peptides added to the wells in […] to give final concentrations used in the red cell lysis experiment. One μCi of ^3 H-methyl-thymidine was added to the wells and the plates incubated overnight at 37° C. Cells harvested 17 hr later and counted.

[3] = test system: granulocyte population; test: Relative cytotoxicity for leucocyte components, flow cytometry (7-actinomycin D uptake); type: cell-based
Protocol: as §1
The relative cytotoxicity of Pilosulin 1 for the different components of the leucocyte population was studied and the results are shown in FIG. 3.

[4] = test system: solid tumour cell lines including a breast cancer, a brain tumour and a kidney cell tumour line; test: Cytotoxicity for solid tumour cell lines; type: cell-based
Protocol: as §1

[5] = test system: normal blood cells, in particular, lymphocytes monocytes and natural killer cells; test: Cytotoxicity for normal blood cells; type: cell-based
Protocol: as §1

[6] = test system: cancer cells of myeloid and lymphoid origin; test: Cytotoxicity towards cancer cells; type: cell-based; details: in particular rapidly dividing cancer cells of myeloid and lymphoid origin
[7] = test system: Red blood cells; test: Red blood cell lysis; type: cell-based; details: 1% (v/v) red blood cells in PBS; peptides 0.3125-80 μM
Protocol: Red blood cells were prepared from fresh whole blood. Red blood cells were diluted to 1% (v/v) with PBS and 0.1 mL aliquots added to a 96 well microtitre plate. Venom and venom peptides were added in 5 μL of normal saline. Whole ant venom concentration (final): 80, 40, 20, 10, 5, 2.5, 1.25, 0.625, 0.3125 4μg/mL. Venom peptide concentration (final): 80, 40, 20, 10, 5, 2.5, 1.25, 0.625, 0.3125 μM.

[8] = test system: EBV-transformed B-cells; test: Flow cytometry cell viability (propidium iodide exclusion); type: cell-based, human; details: 5 μM, treated for 5 minutes; untreated control about 15% permeable
Protocol: as §1
Flow cytometry can measure cell viability by their ability to exclude a fluorescent dye such as propidium iodide or 7-actinomycin D. EBV-transformed B-cells were cultured to log-phase growth and venom and venom peptides added. […] Cells were treated for 5 minutes with Pilosulin 1, Pilosulin 2 and melittin over a concentration range of 0.1 to 10 μM and then cell numbers were measured in the flow cytometer.

[9] = test system: Antibody-labelled (CD3-FITC) white blood cells (T-cell); test: Kinetics of cell killing at different temperatures (7-AAD, flow cytometry); type: cell-based; details: 3 μM melittin
Protocol: The kinetics of Pilosulin 1 and melittin cell killing at different temperatures were investigated. Antibody-labelled (CD3-FITC) white blood cells were incubated with 7-AAD (4 μg/mL) and either 1.5 μM Pilosulin 1 or 3 μM melittin. Three tubes were prepared for each peptide and the tubes were incubated at either 0° C. (circles), room temperature (triangles), or 37° C. (diamonds). Samples of each tube were analysed on a flow cytometer at time zero and thereafter at 2, 5 10 and 15 minutes.

KLGPKVAKVLPKVMKEAIPMAVEMAKSQEEQQPQ [peptide 2]
cytotoxicity to cells [1]: no detectable cytotoxicity

GLGSVFGRLARILGRVIPKVAKKLGPKVAKVLPKVMKEAIPMAVEMAKSQEEQQPQ [Pilosulin 1]
cytotoxicity for proliferating Epstein-Barr Virus transformed B-cells [2]: cytotoxic
effectiveness as a cytotoxin at 50% cell viability (relative) ([2]; 3H-methyl-thymidine, overnight at 37° C., comparator not named): approximately 4 times
cytotoxicity for granulocytes [3]: resistant
cytotoxicity for solid tumour cell lines [4]: cytotoxic
cytotoxicity for normal blood cells [5]: low
cytotoxicity for normal blood cells ([5]; listed as Pilostilin 1): cytotoxic
cytotoxicity towards cancer cells [6]: potent cytotoxicity

CC[C@H](C)[C@H](NC(=O)CN)C(=O)NCC(=O)N[C@@H](C)C(=O)N[C@H](C(=O)N[C@@H](CC(C)C)C(=O)N[C@@H](CCCCN)C(=O)N[C@H](C(=O)N[C@@H](CC(C)C)C(=O)N[C@H](C(=O)N[C@H](C(=O)NCC(=O)N[C@@H](CC(C)C)C(=O)N1CCC[C@H]1C(=O)N[C@@H](C)C(=O)N[C@@H](CC(C)C)C(=O)N[C@H](C(=O)N[C@@H](CO)C(=O)N[C@@H](Cc1c[nH]c2ccccc12)C(=O)N[C@H](C(=O)N[C@@H](CCCCN)C(=O)N[C@@H](CCCNC(=N)N)C(=O)N[C@@H](CCCCN)C(=O)N[C@@H](CCCNC(=N)N)C(=O)N[C@@H](CCC(N)=O)C(=O)N[C@@H](CCC(N)=O)C(N)=O)[C@@H](C)CC)[C@@H](C)CC)[C@@H](C)O)[C@@H](C)O)C(C)C)C(C)C [Melittin]
efficiency on a molar basis in the lysis of red blood cells [7]: most efficient
% Viable Cells [8]: 53.5%
cells killed ([9]; 0° C., 10 minutes): 25%
cells killed ([9]; 37° C., 2 minutes): all cells were killed
cells killed ([9]; room temperature, 2 minutes): 85%
cells killed ([9]; room temperature, 5 minutes): killed all cells
